For assay [1], the system named is human skin explants. The assay can be described thus: Ex vivo human skin organ culture, pigmentation by DOPA staining and light transmission. Format: cell-based. Conditions: for number of dark-stained DOPA positive melanocytes (D-P-M) compared to control: IB-MECA or MRS-1523 10 or 50 μM, hydroquinone 100 μM, FIGS. 8B and 8D; for melanin levels in skin explants: 10 or 50 μM, 12 days of exposure. Here is the method:
Samples of human breast skin obtained during breast surgery were cut into pieces (0.5×0.5 cm) and cultured in DMEM medium (described above) in 6 well plates and incubated at 37° C. with 5% CO2 for 12 days. […] Treated skin samples were washed with PBS and the epidermal sheets were separated from the dermis and incubated in 0.1% L-3,4-DOPA in PBS for 4 h at 37° C. The epidermis sheets were then fixed with 4% formaldehyde solution, dehydrated by graded alcohol, cleared in xylene, and mounted on glass slides. DOPA positive melanocytes were visualized by light microscopy (×400 magnification). […] Light transmission of each area in the epidermis sheet was calculated and expressed as a mean of density of three images.

Assay [2] relates to Akt. The assay can be described thus: Akt phosphorylation in serum starved B16 melanocytes (western blot). It counts as cell-based, murine. Conditions: 10 μM, up to 3 h. Here is the method:
(§1) B16 melanocytes grown in 6-well plates were serum starved overnight and then incubated in the presence of IB-MECA or MRS-1523 (10 μM), for different time intervals at 37° C. Cells were then rinsed with ice cold PBS and lysed by addition of RIPA buffer containing: proteinase inhibitor (PIC, 1:50 v/v), 0.1 mM phenylmethylsulphonylfluoride (PMSF) and 1 mM sodium orthovandate. Cells debris was removed by centrifugation. The protein level in the supernatants was determined using BSA as standard. Equal amounts of the sample (20 μg) were separated by SDS-PAGE using 10% polyacrylamide gels. The resolved proteins were then electroblotted onto nitrocellulose membrane. Membranes were blocked with 1% bovine serum albumin and incubated with anti-ERK-2 antibody (1:1000) or anti-phospho-ERK antibody (1:10000) for 1 h at room temperature, or with anti-Akt-1 antibody (1:1000) or with anti-phospho-Akt antibody […] at 4° C. for 24 h. Blots were then washed and incubated with horseradish peroxidase (conjugated secondary antibodies), for 1 hour at room temperature. The proteins were detected using ECL kit. For the detection of ERK phosphorylation after 72 hours of exposure to the ligands, non-starved cells were used (with 10% FCS).
Background: In western blotting, separated proteins are transferred to a membrane and probed.

Assay [3] relates to ERK1/2. Briefly: ERK1/2 phosphorylation in B16 melanocytes (western blot). It counts as cell-based, murine. Particulars: for ERK phosphorylation: 72 hours of exposure, non-starved cultures (10% FCS), FIG. 6B. Here is the method:
as §1
ERK phosphorylation in non-starved cultures (containing 10% FCS) after 72 hours of exposure to the ligands was examined.

Assay [4] relates to B16 melanocytes. Briefly: Melanin assay (melanin in cell lysates and media) in B16 melanocytes. It counts as cell-based, murine. Conditions: for melanin secretion to the media, visual (photograph): FIG. 3E; for detectable levels of melanin secreted to the medium (extracellular): after 24 hours of exposure; for increase of the total melanin level: FIG. 1B. As to the method: B16 F1 melanoma cells were grown adherently and maintained in DMEM (without phenol red), containing 10% fetal calf serum, 1% antibiotics (penicillin, streptomycin and nystatin, each at 100 U/ml), and 2 mM L-glutamine. Cells were cultured at 37° C. in 5% CO2, and passaged two to three times weekly at a ratio of 1:10.
Melanin content was determined as reported by Sato et al., (2008), Biol. Pharm. Bull., 31(1):33-7, with modifications. Cells (6.5×10^4) were seeded into 6 well plates with 5 ml of DMEM medium (described above) and incubated at 37° C. with 5% CO2 for 3-4 hours to enable cell adherence. Cells were then exposed to test chemicals (IB-MECA, MRS-1523 or kojic acid) at the desired concentration and incubation periods. After the treatment, the supernatants were collected to determine the amount of melanin secreted to the medium. Cells were washed with PBS, detached by incubation with trypsin/EDTA and then DMEM with serum (0.75 ml) was added to each well. Cells were collected by centrifugation and lysed by exposure to 2N NaOH (1 ml) at 60° C. for 1 h and the melanin content was determined by measuring the absorption at 400 nm. The amount of protein in each lysate was determined using bovine serum albumin is used as the standard. The amount of melanin in each sample was calculated using synthetic melanin as standard. The results were expressed as the melanin content per mg protein (μg/mg protein). To compare among treatments, the results were expressed as percent relative to control.

Assay [5] concerns Mitf. Briefly: Mitf expression and localization in B16 melanocytes (immunostaining, confocal microscopy). Format: cell-based, murine. Particulars: 10 μM; for Mitf expression: 3 h or 24 h, FIG. 7. As to the method:
B16 melanocytes were grown for 24 h on glass cover-slips coated with poly-L-lysine (500 ug/ml) in 6 wells plates in the presence of IB-MECA or MRS-1523 (10 μM), for 3 h or 24 h at 37° C. Cells were fixed in 4% formaldehyde in phosphate buffered saline (PBS) for 1 h at room temperature. […] To block non-specific interaction of the antibodies, cells were incubated with PBS (1% BSA, 0.1% Triton X-100). […] Cells were washed three times with PBS and mounted with Fluoromount (Sigma). Cells were visualized by confocal microscopy (excitation 553 and emission at 568, Lieca).

The subject of assay [6] is B16 melanocytes. Briefly: Microscopy of melanosome level and distribution in treated B16 melanocytes. Format: cell-based, murine. Particulars: 10 μM, 24 h, FIG. 3A.
Assay [7] concerns human breast skin. The assay can be described thus: Ex vivo human skin organ culture, pigmentation by Fontana-Masson stain. Format: cell-based. Conditions: for melanin accumulation and/or deposition in keratinocytes (histological appearance): FIG. 9. As to the method: Formalin fixed paraffin embedded skin sections from samples of human breast skin treated with IB-MECA, MRS-1523 or hydroquinone as described for FIG. 8, were evaluated for Fontana-Masson staining and visualized by light microscopy (×400). IBMX (100 μM) was used as a positive control for induction of melanogenesis. K, keratinocytes; M, melanocytes.
Samples of human breast skin obtained during breast surgery were cut into pieces (0.5×0.5 cm) and cultured in DMEM medium (described above) in 6 well plates and incubated at 37° C. with 5% CO2 for 12 days. Skin samples were topically treated with 10 or 50 μM of various A3 adenosine receptor ligands or 100 μM hydroquinone three times during the incubation period and the medium was exchanged every 3 days.

Assay [8] relates to A3 adenosine receptor. Conditions: cited from earlier work.
The mark [9] stands for this setting: 10 μM, serum starved cells, FIG. 6A.
[10] abbreviates: highest IB-MECA concentration, 5 days, FIG. 1A.

The values that follow come from US9668959B2, “A3 adenosine receptor ligands for modulation of pigmentation” (ORADIN PHARMACEUTICAL LTD., priority 2009, dated 2017).

In the case of `Oc1ccc(O)cc1` [hydroquinone], in assay [1] (12 days), the “number of dark-stained DOPA positive melanocytes (D-P-M) compared to control” value (from here on “number … (D-P-M) compared to control”) is recorded as “increased number”. In assay [1] (topical, 100 μM, 12 days), the skin pigmentation entry was “increased skin pigmentation”.
`CCCOC(=O)c1c(-c2ccccc2)nc(CC)c(C(=O)SCC)c1CCC` [MRS-1523, 3-propyl-6-ethyl-5[(ethylthio)carbonyl]-2-phenyl-4-propyl-3-pyridine carboxylate]: the “Akt phosphorylation on continued exposure” value in assay [2] is “downregulation of P-Akt”. Moreover, in assay [3] (setting [9]), the “time to induced phosphorylation of ERK 1” value was at most 30 min and the “time to induced phosphorylation of ERK 2” value is at most 10 min. The ERK phosphorylation result in assay [3] is “stimulated phosphorylation of both ERK1 and ERK 2”. Besides, in assay [4] (1 μM, 5 days), the “melanin level in the cells decreased by” value came out at 27±5.7% and the “total melanin decreased by” value came to 37±5.7%. In assay [4] (5 μM, 5 days), the “melanin level in the cells decreased by” value amounted to 24±1.7% and the “total melanin decreased by” value is reported as 24±1.9%. In addition, in assay [4] (10 μM, 5 days), the “decrease in the overall melanin level” value is given as 88±1.3% and the “melanin secretion to the media, visual (photograph)” value is given as “visually observable decrease in melanin”. Also, the “detectable levels of melanin secreted to the medium (extracellular)” value in assay [4] (10 μM) was “not observed”. In assay [4] (10 μM, four days (96 h)), the “total melanin level decreased by” value came to 67±4.4%. In assay [4] (40 μM, 5 days, FIG. 2A), the “melanin level within the cells decreased by” value stood at 11±2.3% and the “melanin secretion blocked by” value was 88±1.7%. The “decrease in total melanin” value in assay [4] (40 μM, 5 days, FIG. 2B) stood at 67±1.07%. Besides, in assay [4] ("this treatment" (concentration unclear), 5 days), the “decrease of the intracellular melanin” value is listed as 48%±4.9. Further, the “secreted and total melanin levels compared to control” value in assay [4] (all concentrations within 1-40 μM, 5 days) is listed as “lower than that of the control”. Further, in assay [5], the Mitf expression entry was “very low Mitf expression”. In addition, the “pigmentation decreased by (light transmission through epidermal sheets after DOPA staining)” value in assay [1] (10 μM, 12 days) was 80+21.8%. In addition, the “pigmentation decreased by (light transmission through epidermal sheets after DOPA staining)” value in assay [1] (50 μM, 12 days) is 49.5 ± 6.9%. Further, in assay [1] (12 days), the “number … (D-P-M) compared to control” value was “decreased number”. Also, the “melanin levels in skin explants” value in assay [1] (topical) is “decreased melanin levels”. For the same compound, the “melanosome level and distribution in the cytosol” value in assay [6] is “more melansomes were observed in the cell periphery and in the dendritic sites of the control and IB-MECA treated melanocytes as compared to MRS-1523 treated cells”. In assay [7], the “melanin accumulation and/or deposition in keratinocytes (histological appearance)” value is recorded as “lesser extent of melanin accumulation and/or deposition in the keratinocytes”. The “pigmentation of Fontana-Masson stained skin sections compared to control” value (“pigmentation … compared to control” for short) in assay [7] (concentration not given) is “decreased pigmentation”.
`CC(C)Cn1c(=O)n(C)c(=O)c2[nH]cnc21` [IBMX, 3-isobutyl-1-methyl-xanthine]: the “pigmentation … compared to control” value in assay [7] (100 μM, positive control) is “increased pigmentation”.
`CNC(=O)[C@H]1O[C@@H](n2cnc3c(NCc4cccc(I)c4)ncnc32)[C@H](O)[C@@H]1O` [IB-MECA, N^6-(3-iodobenzyl) adenosine-5′-(N-methyluronamide)]: the “Akt phosphorylation on continued exposure” value in assay [2] is listed as “increased phosphorylation of Akt”. The “level of ERK phosphorylation” value in assay [3] (10 μM, 10 min to 3 h, serum starved cells, FIG. 6A) is “did not increase the level of ERK phosphorylation”. Also, the ERK phosphorylation entry in assay [3] is given as “did not appear to affect ERK phosphorylation”. Besides, the “increase of the total melanin level” value in assay [4] (5 μM, 5 days) turned out to be 220±19.4%. Besides, the “level of total melanin” value in assay [4] (10 μM, 72 hours of exposure) is “non-significantly increased”. In assay [4] (10 μM, 120 h), the “increase in the total melanin level” value turned out to be 537±31.9%. Also, in assay [4] (10 μM, 5 days), the “increase of the total melanin level” value was found to be 369±1% and the “melanin secretion to the media, visual (photograph)” value is on record as “visually observable increase in melanin”. Besides, the “detectable levels of melanin secreted to the medium (extracellular)” value in assay [4] (10 μM) is recorded as “not observed”. Also, the “total melanin level increased by” value in assay [4] (10 μM, four days (96 h)) was determined as 198±12.1%. Moreover, the “increase of the total melanin level” value in assay [4] (40 μM, 5 days) is recorded as 441±53.8%. Further, in assay [4] (setting [10]), the “intracellular melanin level increased by” value is 143±4.1% and the “secretion of melanin to the media increased by” value is reported as 554±23.8%. Further, in assay [5], the “time to translocation of Mitf protein to the nucleus” value is recorded as at most 3 h and the Mitf expression result is listed as “highly expressed”. Besides, the “Mitf expression in cytoplasm and nucleus” value in assay [5] (after 24 h of exposure) was “remained high”. Also, in assay [1] (10 μM, 12 days), the “pigmentation increased by (light transmission through epidermal sheets after DOPA staining)” value is given as 27+3.9%. Moreover, in assay [1] (50 μM, 12 days), the “pigmentation increased by (light transmission through epidermal sheets after DOPA staining)” value was 36+2.6%. Moreover, the “number … (D-P-M) compared to control” value in assay [1] (12 days) is “increased number”. The “melanin levels in skin explants” value in assay [1] (topical) is “increased melanin levels”. Also, in assay [6], the “melanosome level and distribution in the cytosol” value is reported as “melanosomes were accumulated in the perinuclear areas”. In assay [8], the “selectivity for the A3 adenosine receptor versus either the A1 or A2A receptors” value is 50 fold. In addition, the “pigmentation … compared to control” value in assay [7] (10 μM) is recorded as “increased pigmentation”. Also, the “melanin accumulation and/or deposition in keratinocytes (histological appearance)” value in assay [7] was “elevation in melanin accumulation and/or deposition in the adjacent keratinocytes”.
With `O=c1cc(CO)occ1O` [kojic acid], the “effect on melanin synthesis and secretion” value in assay [4] (5 days, FIG. 4A) is “both melanin synthesis (overall melanin levels) and secretion (melanin level in the medium) were affected”. In addition, the “inhibition in the total melanin level” value in assay [4] (5 days, concentration not given, FIG. 4B) is reported as 51%±2.4.
